Measurements as given in US20040073961A1, “Nematode screening assay” (priority 2002, published 2004).
Where two headings read alike, the source gives them in different places.

Key:
wild-type C. elegans [1] = conditions: known from the literature, cited from earlier work
rat I7 OR [2] = biological target: T1, rat I7 OR (Rattus norvegicus, UniProt P23270); assay: Population chemotaxis assay for volatile substances, Str-1::I7 transgenic worms (I7 expressed in AWB neurons); assay type: in vivo, C. elegans; parameters: expressed in transfected cells; host or cells: transgenic C. elegans; AWB neurons (str-1 promoter) or AWA neurons (odr-10 promoter)
T1 sequence (P23270 1-327): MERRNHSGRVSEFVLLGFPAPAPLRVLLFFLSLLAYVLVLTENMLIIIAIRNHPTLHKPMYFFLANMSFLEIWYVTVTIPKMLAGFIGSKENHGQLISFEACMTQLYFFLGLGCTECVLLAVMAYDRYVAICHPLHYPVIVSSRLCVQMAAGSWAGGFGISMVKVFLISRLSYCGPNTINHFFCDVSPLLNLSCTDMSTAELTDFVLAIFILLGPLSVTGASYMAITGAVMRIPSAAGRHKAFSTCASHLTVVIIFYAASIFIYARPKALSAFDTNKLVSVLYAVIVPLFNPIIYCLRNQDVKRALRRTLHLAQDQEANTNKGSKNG
Method: (§1) (Bargmann, C. I., Hartwieg, E., and Horvitz, H. R. (1993) Cell 74, 515-527). One microliter of odorant and one microliter 1 M sodium azide were added at one end of the dish (zone 1), and one microliter of solvent (ethanol) and one microliter 1 M sodium azide were added at the opposite end (zone 6) as a control. Sodium azide was included to anaesthetize animals entering zones 1 and 6.
(§2) Where reported, worms were exposed to a 1:100 dilution of diacetyl, undiluted benzaldehyde, undiluted octanal and 1:5, 1:10, 1:15, 1:25, 1:50, 1:100, and 1:1000 dilutions of octanal (Sigma Chemical Co., St. Louis, Mo.). Population assay data for N2 and transgenic worm lines were compared using the two-tailed t test.
To investigate the possibility to functionally express mammalian ORs in C. elegans, wild-type nematodes were first characterized for their ability to detect and respond to increasing dilutions of volatile chemicals and particularly to octanal, an agonist for the rat I7 OR (FIG. 4B; Zhao, H., Ivic, L., Otaki J. M., Hashimoto, M., Mikoshiba, K., and Firestein, S. (1998) Science 279, […]; Araneda, R. C., Kini, A. D., and Firestein, S. (2000) Nature Neurosci. 12, 1248-1255). […] Higher dilutions of octanal gave chemotaxis indexes close to 0 indicating a neutral response of the wild-type worms to lower concentrations of the odorant. […] As AWB neurons mediate volatile avoidance in C. elegans, it was expected that the expression of the rat I7 OR in AWB neurons and its activation with a 1:10 dilution of octanal would counteract the olfactory attraction to 1:10 octanal observed in wild-type worms. I7 transgenic worms were generated, in which I7 expression was driven by the str-1 promoter, a controlling element exclusively functional in the two AWB neurons (Troemel, E. R., Kimmel, B. E., and Bargmann, C. I. (1997) Cell 91, 161-169). Five independently derived C. elegans transgenic strains expressing I7 were tested (FIG. 5). […]

rat I7 OR [3] = biological target: T1, rat I7 OR; assay: Population chemotaxis assay for volatile substances, Odr-10::I7 transgenic worms (I7 expressed in AWA neurons); assay type: in vivo, C. elegans; parameters: expressed in transfected cells; host or cells: transgenic C. elegans; AWB neurons (str-1 promoter) or AWA neurons (odr-10 promoter)
Method: as §1, §2
AWA neurons mediate chemotaxis to volatile attractants in C. elegans. […] It was expected that the activation of I7 with undiluted octanal in these transgenic worms would counteract the volatile avoidance to undiluted octanal observed in wild-type worms. Chemotaxis assays were performed with four independently derived C. elegans transgenic strains expressing I7 (FIG. 6). […] While most of the wildtype C. elegans were repelled toward zone 6, a significant number of odr-10::I7 transgenic worms was found in the proximity to the odorant source (FIGS. 6B and 3A). In order to investigate the specificity of the decrease in the aversive response of Odr10::I7 transgenic worms to undiluted octanal and to confirm that this decrease was due to the interaction of octanal with I7, chemotaxis assays with Odr-10::I7 transgenic worms were performed in which diacetyl and benzaldehyde were used.

wild-type C. elegans [4] = assay: Population chemotaxis assay for volatile substances, wild-type worms; assay type: in vivo
Method: FIG. 3A: Chemotaxis assays on adult C. elegans to volatile compounds. […] One microliter of odorant and one microliter 1 M sodium azide were added at zone 1, and one microliter of control solvent and one microliter 1 M sodium azide were added at zone 6.
as §1, §2

rat I7 OR [5] = biological target: T1, rat I7 OR; conditions: from the literature (Zhao 1998; Araneda 2000); cited from earlier work
[6] = specificity controls: 1:100 dilution of diacetyl, pure benzaldehyde, Str-1::I7 transgenic worms
[7] = specificity controls: diacetyl and benzaldehyde, Odr-10::I7 transgenic worms

Structure (SMILES) | behavioral response of wild-type C. elegans (wild-type C. elegans [1]; 1:100 dilution of diacetyl) | change of chemotaxis index in relation to control wild-type worms (rat I7 OR [2]; [6]) | change of chemotaxis index in relation to control wild-type worms (rat I7 OR [3]; [7]) | chemotaxis index (wild-type C. elegans [4]; 1:10 dilution of octanal, wild-type worms, scored after 1 hour) | chemotaxis index (wild-type C. elegans [4]; higher dilutions of octanal than 1:10, wild-type worms, neutral response) | chemotaxis index (wild-type C. elegans [4]; undiluted octanal, 1 microliter, wild-type worms, scored after 1 hour, +1.0 total attraction, −1.0 total repulsion) | activity at the I7 receptor (rat I7 OR [5]) | change of chemotaxis index in relation to control wild-type worms (rat I7 OR [2]; 1:10 octanal, five Str-1::I7 transgenic worm strains, statistically significant) | change of chemotaxis index in relation to control wild-type worms (rat I7 OR [3]; undiluted octanal, four Odr-10::I7 transgenic worm strains, statistically significant) | behavioral response of wild-type C. elegans (wild-type C. elegans [1]; pure benzaldehyde)
CC(=O)C(C)=O [diacetyl] | induce attraction | did not change | did not change | – | – | – | – | – | – | –
CCCCCCCC=O [octanal] | – | – | – | +0.5 | ~0 | −0.6 | agonist | decreased dramatically | increased dramatically | –
O=Cc1ccccc1 [benzaldehyde] | – | did not change | did not change | – | – | – | do not activate | – | – | induce aversion
